# Article PMC8472913 (Viruses, 2021)
# Where two headings read alike, the source gives them in different places.
# Tests used:
# [1] = tested on: Murine norovirus (MNV, strain MNV 1.CW1); assay: MNV-induced CPE reduction assay (MTS) in RAW 264.7 cells; format: cell-based; details: for selectivity index (SI): MNV, CC50/EC50
# [2] = tested on: HuNoV GI.1 replicon; assay: HuNoV GI.1 replicon assay in HGT cells (RT-qPCR); format: cell-based, Human norovirus
# [3] = target: GV protease (Norovirus, UniProt Q80J95); assay: Cell-based FRET protease assay, GV protease
# [4] = target: mutated GI.1 proteases (A105V, I109V, A105V/I109V) (Norovirus, UniProt Q83883, A1205V/I1209V); assay: Cell-based FRET protease assay, mutated GI.1 proteases; parameters: species or system Human norovirus; details: versus WT
# [5] = target: mutated GI.1 proteases (A105V, I109V, A105V/I109V) (Norovirus, UniProt Q83883, I1209V); assay: as above; parameters: species or system Human norovirus; details: versus WT
# [6] = Water solubility; format: physicochemical
# [7] = target: GII protease (Lordsdale virus, UniProt P54634); assay: Cell-based FRET protease assay, GII protease; parameters: species or system norovirus
# [8] = Pharmacokinetic studies in mice; format: in vivo; details: CD-1 mice; for AUC(0-t) / Cmax / Tmax / bioavailability / half-life / AUC(0-inf) / MRT inf / clearance: male, mouse, serum; for AUC(0-inf): read-out: AUCINF_obs; for MRT inf: read-out: MRTINF_obs; for clearance: read-out: CL_obs
# [9] = tested on: Murine norovirus (MNV, strain MNV 1.CW1); assay: MNV virus yield assay, viral RNA by RT-qPCR; format: cell-based; details: Norwalk virus, RAW264.7, RAW 264.7 cells
# [10] = Cytotoxicity assay (MTS) in RAW 264.7 cells; format: cell-based; details: mouse
# [11] = target: GI.1 protease (Norovirus, UniProt Q83883); assay: Cell-based FRET protease assay, GI.1 protease; parameters: species or system Human norovirus
# [12] = tested on: HGT cells; assay: Adverse effects on host cells of the HuNoV GI.1 replicon assay; format: cell-based; details: up to the highest tested concentration of 100 µM
# [13] = target: mutated GI.1 proteases (A105V, I109V, A105V/I109V) (Norovirus, UniProt Q83883, A1205V); assay: Cell-based FRET protease assay, mutated GI.1 proteases; parameters: species or system Human norovirus; details: versus WT
# [14] = tested on: HuNoV GI.1 replicon; assay: HuNoV GI.1 replicon clearance assay; format: cell-based, Human norovirus; details: for reduction in HuNoV GI.1 RNA: 10 µM
# [15] = tested on: compound 4res MNV variant; assay: Generation of drug-resistant MNV variants; format: cell-based, Murine norovirus; details: after 25 passages (6 months)
# [16] = tested on: HuNoV GI.1 replicon variants; assay: Generation of drug-resistant HuNoV GI.1 replicon variants; format: cell-based, Human norovirus; details: for EC50: Norovirus
# [17] = tested on: Murine norovirus (MNV, strain MNV 1.CW1); parameters: method as in earlier work; details: read-out: EC50 against MNV; cited from earlier work
# [18] = Norwalk virus, RAW264.7, read-out: MNV-EC50
# [19] = Norovirus, HuNoV replicon, read-out: HuNoV-EC50
# [20] = selection pressure: 6 µM of compound 4
# [21] = selection pressure: 10 µM of compound 4
# [22] = selection pressure: 16 µM of compound 4
# [23] = selection pressure: DMSO control
# [24] = selection pressure: 10 µM of rupintrivir
# [25] = selection pressure: 14 µM of rupintrivir
compound,measurement,setting,value
Cc1cc(C(=O)NC(C(=O)NC(CC2CCCCC2)C(=O)NC(C=O)CC2CCNC2=O)C(C)C)no1 (stereo not drawn) [10a],EC50,[1]; [18],3800 ± 970 nM
same,EC50,[2]; [19],240 ± 110 nM
CC(C)C(NC(=O)c1cc2ccccc2[nH]1)C(=O)NC(CC1CCCCC1)C(=O)NC(C=O)CC1CCNC1=O (stereo not drawn) [10b],EC50,[1]; [18],230 ± 110 nM
same,EC50,[2]; [19],16 ± 9 nM
CC(C)C(NC(=O)c1cc2ccccc2o1)C(=O)N[C@@H](CC1CCCCC1)C(=O)N[C@H](C=O)C[C@@H]1CCNC1=O (stereo partly drawn) [10c],EC50,[1]; [18],94 ± 14 nM
same,EC50,[2]; [19],16 ± 6 nM
CC(C)C(NC(=O)c1ccc2ccccc2n1)C(=O)N[C@@H](CC1CCCCC1)C(=O)N[C@H](C=O)C[C@@H]1CCNC1=O (stereo partly drawn) [10d],IC50,[3],0.49 µM
same,"change in IC50 value, A105V/I109V mutation",[4]; GI.1 protease,1.6 fold
same,"shift in IC50 value, I109V mutation",[5]; GI.1 protease,2.5 fold
same,water solubility,[6],low water solubility
same,IC50,[7],0.12 µM
same,"improvement in the FRET assay, GII protease",[7]; versus the initial hit,~ 300 fold
same,"bioavailability, in words",[8],good
same,"half-life (T1/2), in words",[8],long
same,"maximal concentration (Cmax), in words",[8],high
same,Vss_obs,[8]; i.v. (5 mg/kg),3867 ± 758 mL/kg
same,AUC(0-t),"[8]; ip, i.p. (20 mg/kg)",10800 ng·h/mL
same,Cmax,"[8]; ip, i.p. (20 mg/kg)",12700 ng/mL
same,Tmax,"[8]; ip, i.p. (20 mg/kg)",15 min
same,bioavailability,"[8]; ip, i.p. (20 mg/kg)",150%
same,half-life,"[8]; ip, i.p. (20 mg/kg)",256 ± 14.4 min
same,AUC(0-inf),"[8]; ip, i.p. (20 mg/kg)",10800 ng·h/mL
same,MRT inf,"[8]; ip, i.p. (20 mg/kg)",1.34 ± 0.29 h
same,AUC(0-t),"[8]; iv, i.v. (5 mg/kg)",1800 ± 63 ng·h/mL
same,half-life,"[8]; iv, i.v. (5 mg/kg)",338 ± 97.8 min
same,AUC(0-inf),"[8]; iv, i.v. (5 mg/kg)",1810 ± 67 ng·h/mL
same,clearance,"[8]; iv, i.v. (5 mg/kg)",46 ± 1.7 mL/min/kg
same,MRT inf,"[8]; iv, i.v. (5 mg/kg)",1.4 ± 0.23 h
same,AUC(0-t),"[8]; sc, s.c. (5 mg/kg)",1840 ± 717 ng·h/mL
same,Cmax,"[8]; sc, s.c. (5 mg/kg)",1570 ± 582 ng/mL
same,Tmax,"[8]; sc, s.c. (5 mg/kg)",25.2 ± 17.4 min
same,bioavailability,"[8]; sc, s.c. (5 mg/kg)",102%
same,half-life,"[8]; sc, s.c. (5 mg/kg)",361 ± 55.2 min
same,AUC(0-inf),"[8]; sc, s.c. (5 mg/kg)",1860 ± 718 ng·h/mL
same,MRT inf,"[8]; sc, s.c. (5 mg/kg)",1.7 ± 0.16 h
same,EC50,[9],30 ± 10 nM
same,selectivity index (SI),[1],> 1000
same,EC50,[1]; [18],37 ± 16 nM
same,CC50,[10],48 ± 3 µM
same,IC50,[11],0.09 µM
same,"improvement in the FRET assay, GI protease",[11]; versus the initial hit,~ 300 fold
same,EC50,[2]; [19],12 ± 10 nM
same,fold more potent (EC50),[2]; versus the initial hit,about 100 fold
same,adverse effects on the host cells,[12],without adverse effects
O=C[C@H](C[C@@H]1CCNC1=O)NC(=O)[C@H](CC1CCCCC1)NC(=O)c1ccc2ccccc2n1 [compound 4],IC50,[3],32.5 µM
same,"shift in IC50 value, A105V/I109V mutation in GI.1 protease",[4],not
same,"shift in IC50 value, A105V mutation in GI.1 protease",[13],not
same,"reduction of GI.1 protease sensitivity, single I109V mutation",[5],did not result in a significant reduction
same,IC50,[7],40.6 µM
same,"area under the curve (AUC) value, in words",[8],high
same,"bioavailability, in words",[8],good
same,"half-life (T1/2), in words",[8],moderate
same,"maximal concentration (Cmax), in words",[8],high
same,Vss_obs,[8]; i.v. (5 mg/kg),1498 ± 714 mL/kg
same,AUC(0-t),"[8]; ip, i.p. (20 mg/kg)",14900 ng·h/mL
same,Cmax,"[8]; ip, i.p. (20 mg/kg)",14500 ng/mL
same,Tmax,"[8]; ip, i.p. (20 mg/kg)",15 min
same,bioavailability,"[8]; ip, i.p. (20 mg/kg)",72.1%
same,half-life,"[8]; ip, i.p. (20 mg/kg)",307 ± 64.2 min
same,AUC(0-inf),"[8]; ip, i.p. (20 mg/kg)",15000 ng·h/mL
same,MRT inf,"[8]; ip, i.p. (20 mg/kg)",1.4 ± 0.06 h
same,AUC(0-t),"[8]; iv, i.v. (5 mg/kg)",5160 ± 1320 ng·h/mL
same,half-life,"[8]; iv, i.v. (5 mg/kg)",330 ± 51 min
same,AUC(0-inf),"[8]; iv, i.v. (5 mg/kg)",5190 ± 1300 ng·h/mL
same,clearance,"[8]; iv, i.v. (5 mg/kg)",16.8 ± 4.4 mL/min/kg
same,MRT inf,"[8]; iv, i.v. (5 mg/kg)",1.44 ± 0.3 h
same,AUC(0-t),"[8]; sc, s.c. (5 mg/kg)",4060 ± 1140 ng·h/mL
same,Cmax,"[8]; sc, s.c. (5 mg/kg)",2200 ± 894 ng/mL
same,Tmax,"[8]; sc, s.c. (5 mg/kg)",34.8 ± 17.4 min
same,bioavailability,"[8]; sc, s.c. (5 mg/kg)",78.6%
same,half-life,"[8]; sc, s.c. (5 mg/kg)",338 ± 24 min
same,AUC(0-inf),"[8]; sc, s.c. (5 mg/kg)",4110 ± 1140 ng·h/mL
same,MRT inf,"[8]; sc, s.c. (5 mg/kg)",2.95 ± 0.53 h
same,reduction in HuNoV GI.1 RNA,[14]; after three passages,3 log10
same,reduction in HuNoV GI.1 RNA,[14]; after two passages,2 log10
same,clearance of the HuNoV GI.1 replicon from cells,"[14]; two consecutive treatments with 10 µM, rebound with G418",could clear cells from the HuNoV GI.1 replicon completely
same,EC50,[9],1700 ± 600 nM
same,selectivity index (SI),[1],35.6
same,EC50,"[1]; Norwalk virus, RAW264.7, RAW 264.7 cells, MTS, read-out: EC50, MNV-induced CPE",~1000 nM
same,EC50,"[1]; RAW 264.7 cells, MTS, read-out: EC50, MNV-induced CPE",700 ± 200 nM
same,CC50,[10],25.3 ± 6.1 µM
same,IC50,[11],34 µM
same,"shift in EC50, MNV compound 4res variant",[15],4.5 fold
same,EC50,"[2]; HGT cells, 72 h, replicon RNA relative to β actin, read-out: EC50, HuNoV GI.1 replicon",1200 ± 600 nM
same,adverse effects on the host cells,[12],no adverse effects
same,EC50,[16]; [20],3.8 µM
same,EC50,[16]; [21],4.3 µM
same,EC50,[16]; [22],11.5 ± 0.9 µM
same,EC50,[16]; [23],0.8 ± 0.3 µM
same,Fold Change in EC50,[16]; [20],4.5
same,Fold Change in EC50,[16]; [21],5.2
same,Fold Change in EC50,[16]; [22],13.8
"CCOC(=O)/C=C/[C@H](C[C@@H]1CCNC1=O)NC(=O)[C@@H](CC(=O)[C@@H](NC(=O)c1cc(C)on1)C(C)C)Cc1ccc(F)cc1 [rupintrivir, Rupintrivir, reference compound]",IC50,[3],4.6 µM
same,"shift in IC50 value, A105V/I109V mutation in GI.1 protease",[4],significant shift
same,"shift in IC50 value, A105V mutation in GI.1 protease",[13],significant shift
same,"reduction of GI.1 protease sensitivity, single I109V mutation",[5],did not result in a significant reduction
same,IC50,"[7]; FRET, HEK293T cells, WT protease, read-out: IC50, GII protease",12.2 µM
same,IC50,"[11]; FRET, HEK293T cells, WT protease, read-out: IC50, GI.1 protease",3 µM
same,EC50,[17],13 ± 2 µM
same,EC50,[16]; [24],9.4 ± 0.5 µM
same,EC50,[16]; [25],15 ± 3 µM
same,EC50,[16]; [23],1 ± 0.1 µM
same,Fold Change in EC50,[16]; [24],9.3
same,Fold Change in EC50,[16]; [25],15
same,Fold Change in EC50,"[16]; selection pressure: 14 µM of rupintrivir, listed as Rupintrivir",15.2
